Values after ≈ are worked out from the molar mass of the structure shown.
Columns and labels:
[1] = Aqueous solubility of the compound in Britton-Robinson buffer at pH 6.5 after 48 hrs by shake-flask method; type: physicochemical
[2] = system: Human immunodeficiency virus 1; assay: Antiviral activity against HIV1 3B harboring reverse transcriptase Y181C mutant infected in human MT2 cells assessed as protection against virus-induced effect by MTT assay; type: functional, organism-based
[3] = system: Human immunodeficiency virus 1; assay: Antiviral activity against HIV1 3B harboring reverse transcriptase K103N/Y181C double mutant infected in human MT2 cells assessed as protection against virus-induced effect by MTT assay; type: functional, organism-based
MT2 = assay: (§1) Cytotoxicity against human MT2 cells assessed as growth inhibition; type: cell-based; conditions: mt2
[4] = system: Human immunodeficiency virus 1; assay: Antiviral activity against HIV1 3B harboring reverse transcriptase Y181C mutant infected in human MT4 cells assessed as protection against virus-induced effect; type: functional, organism-based; conditions: Human immunodeficiency virus 1, 3B
[5] = system: Human immunodeficiency virus 1; assay: Antiviral activity against wild type HIV1 3B infected in human MT4 cells assessed as protection against virus-induced effect; type: functional, organism-based; conditions: Human immunodeficiency virus 1, 3B
[6] = Aqueous solubility of the compound; type: physicochemical; conditions: aqueous medium
[7] = as §1; type: cell-based; conditions: MT2 cells
[8] = Solubility of the compound in water by HPLC analysis; type: physicochemical
[9] = Equilibrium solubility of the compound by shake-flask method; type: physicochemical
[10] = Intrinsic solubility of the compound in water at 25 degC after 7 days by HPLC analysis; type: physicochemical; conditions: buffer, 168 h
[11] = Human immunodeficiency virus 1, 3B, MT2, read-out: EC50

Structure (SMILES)	solubility thermodynamic at 48 h [1] [µg/mL]	EC50 [2, 11] [nM]	EC50 [3, 11] [nM]	further results
Cc1cc(C)c(Nc2cc(OCCN3CCOCC3)nc(Nc3ccc(C#N)cc3)n2)c(C)c1	12.5 (≈ 27.3 µM)	700	60	–
Cc1cc(C)c(Nc2cc(OCCCN3CCOCC3)nc(Nc3ccc(C#N)cc3)n2)c(C)c1	27.3 (≈ 57.8 µM)	480	38	–
Cc1cc(C)c(Nc2nc(Nc3ccc(C#N)cc3)nc(OCCN3CCOCC3)n2)c(C)c1	4.42 (≈ 9.62 µM)	700	110	–
Cc1cc(C)c(Nc2nc(Nc3ccc(C#N)cc3)nc(OCCCN3CCOCC3)n2)c(C)c1	15.3 (≈ 32.3 µM)	310	31	–
Cc1cc(C#N)cc(C)c1Nc1nc(Nc2ccc(C#N)cc2)nc(OCCCN2CCOCC2)n1	13.3 (≈ 27.4 µM)	1000	42	–
Cc1cc(/C=C/C#N)cc(C)c1Nc1nc(Nc2ccc(C#N)cc2)nc(OCCCN2CCOCC2)n1	14.2 (≈ 27.8 µM)	–	–	–
Cc1cc(F)c(Nc2nc(Nc3ccc(C#N)cc3)nc(OCCCN3CCOCC3)n2)c(F)c1	22.9 (≈ 47.6 µM)	350	70	–
CCc1cc(F)c(Nc2nc(Nc3ccc(C#N)cc3)nc(OCCCN3CCOCC3)n2)c(F)c1	–	500	50	–
CC(C)c1cc(F)c(Nc2nc(Nc3ccc(C#N)cc3)nc(OCCCN3CCOCC3)n2)c(F)c1	–	270	30	–
N#Cc1ccc(Nc2nc(Nc3c(F)cc(C4CC4)cc3F)nc(OCCCN3CCOCC3)n2)cc1	–	1100	150	–
Cc1cc(C)c(Nc2nc(Nc3ccc(C#N)cc3)nc(OCCC3CCNCC3)n2)c(C)c1	–	1000	100	–
Cc1cc(C)c(Nc2nc(Nc3ccc(C#N)cc3)nc(OCCCC3CCNCC3)n2)c(C)c1	–	1200	140	–
Cc1cc(C)c(Nc2ncnc(Nc3ccc(C#N)cc3)n2)c(C)c1	0.2 (≈ 0.605 µM)	–	–	–
Cc1cc(C)c(Nc2ccnc(Nc3ccc(C#N)cc3)n2)c(C)c1 [DAPIVIRINE]	–	39	39	CC50 (MT2): 2000 nM; EC50 [4]: 7 nM; EC50 [5]: 1.2 nM
Cc1cc(C#N)cc(C)c1Oc1nc(Nc2ccc(C#N)cc2)nc(N)c1Br [ETRAVIRINE]	–	–	–	solubility [6]: < 1 µg/mL
Cc1ccnc2c1NC(=O)c1cccnc1N2C1CC1 [NEVIRAPINE]	–	–	–	CC50 [7]: > 100000 nM; EC50 ([2]; mt2): Not Active; EC50 ([3]; mt2): Not Active; solubility [8]: 167 µg/mL (≈ 627 µM)
CN1C(C(=O)Nc2ccccn2)=C(O)c2ccccc2S1(=O)=O [PIROXICAM]	7.2 (≈ 21.7 µM)	–	–	solubility thermodynamic [9]: 6.4 µg/mL (≈ 19.3 µM)
CC(C)=CCOc1cc(NC(=S)c2ccoc2C)ccc1Cl [UC 781]	–	–	–	Intrinsic_solubility [10]: < 0.03 µg/mL

From ChEMBL document CHEMBL2417542 (Bioorg Med Chem Lett, 2013)
